According to the supplement of paper PMC11061612:

Key:
[1] = tested on: NCI-H810 (Non-Small Cell Lung Carcinoma); test: Bliss excess, mean over the matrix (fraction); higher = more synergy
Summary of the method: (§1)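 After 24 hours at 37°C and 5% CO2 in 1536-well plates, cells in DMEM/F12 or RPMI plus 10% FBS received two-drug dose matrices for 72 hours. Viability came from CellTiter-Glo 2.0 luminescence and was scaled as inhibition, anchored at 0 by vehicle wells and at 1 by blank wells. Combination Emax is taken as the second-highest inhibition in the matrix, and Bliss excess as the observed combination effect less EA + EB − EA·EB, with EA and EB the single-agent effects.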

[2] = tested on: 786-0 (Kidney Carcinoma); test: as above
Summary of the method: as §1

[3] = tested on: SJRH30 (Rhabdomyosarcoma); test: as above
Summary of the method: as §1

[4] = tested on: NKM-1 (Acute Myeloid Leukemia); test: as above
Summary of the method: as §1

[5] = tested on: OVTOKO (Ovarian Carcinoma); test: as above
Summary of the method: as §1

[6] = tested on: HTC-C3 (Thyroid Gland Carcinoma); test: as above
Summary of the method: as §1

[7] = tested on: RPMI-8866 (Chronic Myelogenous Leukemia); test: as above
Summary of the method: as §1

[8] = tested on: KYSE-70 (Esophageal Squamous Cell Carcinoma); test: as above
Summary of the method: as §1

[9] = tested on: KYM-1 (Rhabdomyosarcoma); test: as above
Summary of the method: as §1

[10] = tested on: FLO-1 (Esophageal Adenocarcinoma); test: as above
Summary of the method: as §1

[11] = tested on: RL95-2 (Endometrial Carcinoma); test: as above
Summary of the method: as §1

[12] = tested on: AsPC-1 (Pancreatic Carcinoma); test: as above
Summary of the method: as §1

[13] = tested on: OCI-AML5 (Acute Myeloid Leukemia); test: as above
Summary of the method: as §1

[14] = tested on: CHL-1 (Melanoma); test: as above
Summary of the method: as §1

[15] = tested on: NCI-H1563 (Lung Adenocarcinoma); test: as above
Summary of the method: as §1

[16] = tested on: JHH-1 (Hepatocellular Carcinoma); test: as above
Summary of the method: as §1

[17] = tested on: COLO-684 (Endometrial Carcinoma); test: as above
Summary of the method: as §1

[18] = tested on: ES-2 (Ovarian Carcinoma); test: as above
Summary of the method: as §1

[19] = tested on: CML-T1 (Chronic Myelogenous Leukemia); test: combination Emax (second highest fraction inhibited in the dose matrix, 72 h); higher = more inhibition; extreme values may be limits of the assay
Summary of the method: as §1

[20] = tested on: COLO-684 (Endometrial Carcinoma); test: as above
Summary of the method: as §1
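Throughout, for Bliss excess, mean over the matrix: after 72 h of two-drug dosing.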

| SMILES | Bliss excess [1] | Bliss excess [2] | Bliss excess [3] | Bliss excess [4] | Bliss excess [5] | Bliss excess [6] | Bliss excess [7] | Bliss excess [8] | Bliss excess [9] | Bliss excess [10] | Bliss excess [11] | Bliss excess [12] | Bliss excess [13] | Bliss excess [14] | Bliss excess [15] | Bliss excess [16] | Bliss excess [17] | Bliss excess [18] | combination Emax [19] | combination Emax [20] |
| --- | --- | --- | --- | --- | --- | --- | --- | --- | --- | --- | --- | --- | --- | --- | --- | --- | --- | --- | --- | --- |
| NC1(C(=O)N[C@@H](CCO)c2ccc(Cl)cc2)CCN(c2ncnc3[nH]ccc23)CC1 [Capivasertib] + CC(C)n1c(=O)n(C)c2cnc3cc(F)c(-c4ccc(OCCCN5CCCCC5)nc4)cc3c21 [AZD1390] (first compound max 10 µM, 7x7, partner max 0.3 µM) | -0.0543 | -0.0997 | -0.0373 | -0.111 | -0.0752 | -0.0216 | 0.0503 | -0.063 | -0.0278 | -0.0398 | -0.0709 | -0.0512 | -0.0369 | -0.0209 | 0.0016 | -0.0495 | -0.0909 | -0.0648 | 0.656 | 0.56 |
| CC1(C)CCC(CN2CCN(c3ccc(C(=O)NS(=O)(=O)c4ccc(NCC5CCOCC5)c([N+](=O)[O-])c4)c(Oc4cnc5[nH]ccc5c4)c3)CC2)=C(c2ccc(Cl)cc2)C1 [Venetoclax] + C1CN(CCC1(C(=O)N[C@@H](CCO)C2=CC=C(C=C2)Cl)N)C3=NC=NC4=C3C=CN4 [Capivasertib] (first compound max 1 µM, 7x7, partner max 3 µM) | -0.0663 | -0.0428 | -0.0008 | 0.0228 | -0.0546 | -0.0418 | -0.0224 | -0.0102 | -0.0269 | -0.0841 | -0.0102 | -0.088 | -0.0057 | -0.0266 | -0.0411 | -0.0721 | -0.0821 | -0.0389 | 0.935 | 0.625 |
| CCN(CCO)CCCOc1ccc2c(Nc3cc(CC(=O)Nc4cccc(F)c4)[nH]n3)ncnc2c1 [AZD2811] + O=C(c1cc(Cc2n[nH]c(=O)c3ccccc23)ccc1F)N1CCN(C(=O)C2CC2)CC1 [Olaparib] (first compound max 1 µM, 7x7, partner max 10 µM) | -0.016 | -0.0274 | 0.0189 | 0.0342 | -0.012 | -0.0101 | 0.147 | 0.0005 | 0.0071 | -0.0153 | -0.0101 | -0.0273 | -0.0224 | -0.0035 | -0.0221 | 0.0078 | -0.0102 | -0.0182 | 0.829 | 0.291 |
| C[C@@H](c1ccc2nccn2c1)n1nnc2ncc(-c3cnn(C)c3)nc21 [Savolitinib] + Cc1c2c(nn1C)CSCc1cc(n(C)n1)CSc1cc(c3ccccc3c1)OCCCc1c(C(=O)O)n(C)c3c-2c(Cl)ccc13 [AZD5991] (first compound max 1 µM, 7x7, partner max 1 µM) | -0.0517 | -0.0331 | -0.0432 | -0.0069 | -0.0743 | -0.0373 | -0.0285 | -0.0339 | -0.0309 | -0.032 | -0.0676 | -0.118 | -0.0178 | -0.023 | -0.0271 | -0.0462 | -0.0158 | -0.0299 | 0.228 | 0.174 |
| CN(C)CCCOc1ccc(-c2ccc3ncc4c(c3c2)n(C2CCOCC2)c(=O)n4C)cn1 [AZD0156] + C=CCn1c(=O)c2cnc(Nc3ccc(N4CCN(C)CC4)cc3)nc2n1-c1cccc(C(C)(C)O)n1 [AZD1775] (first compound max 1 µM, partner max 1 µM) | -0.0519 | 0.0005 | -0.0467 | -0.0605 | -0.0255 | -0.0187 | -0.0175 | -0.0531 | -0.0123 | 0.0285 | -0.03 | -0.0179 | -0.0359 | -0.0427 | -0.0549 | -0.0501 | -0.0266 | -0.0249 | 0.917 | 0.688 |
| C=CCn1c(=O)c2cnc(Nc3ccc(N4CCN(C)CC4)cc3)nc2n1-c1cccc(C(C)(C)O)n1 [AZD1775] + C1CN(CCC1(C(=O)N[C@@H](CCO)C2=CC=C(C=C2)Cl)N)C3=NC=NC4=C3C=CN4 [Capivasertib] (first compound max 3 µM, partner max 3 µM) | -0.0404 | -0.0169 | -0.0065 | -0.0746 | -0.0135 | -0.0653 | 0.0091 | -0.0193 | -0.0084 | -0.0228 | 0.0093 | -0.0654 | -0.0443 | 0.0106 | -0.0318 | -0.018 | -0.0937 | -0.0209 | 0.932 | 0.841 |
